Patent US6043235A, “11β-aryl-17, 17-spirothiolane-substituted steroids” (Research Triangle Institute, priority 1999, dated 2000)
pIC50: −log10 of the molar value.

Key:
[1] = target: T1, Human Progestin Receptor in T47-D Cells (Homo sapiens, UniProt P06401); experiment: Whole cell receptor binding (competition with 3H-R5020) in T-47D human breast carcinoma cells; conditions: for pIC50: 50% displacement of 3H-R5020, T-47D cells, overnight incubation; for Relative Binding % Prog.: RBA relative to internal standard progesterone; for Relative Binding % Prog. / Relative Binding % R5020: ratio of concentrations causing 50% displacement, compared in the same assay; for Relative Binding % R5020: RBA relative to reference standard R5020 (promegestone)
T1 construct: The human breast carcinoma (T-47D) cell line was used to assess RBA for progestin receptor; host or cells: T-47D human breast carcinoma cells
T1 sequence (P06401 1-933): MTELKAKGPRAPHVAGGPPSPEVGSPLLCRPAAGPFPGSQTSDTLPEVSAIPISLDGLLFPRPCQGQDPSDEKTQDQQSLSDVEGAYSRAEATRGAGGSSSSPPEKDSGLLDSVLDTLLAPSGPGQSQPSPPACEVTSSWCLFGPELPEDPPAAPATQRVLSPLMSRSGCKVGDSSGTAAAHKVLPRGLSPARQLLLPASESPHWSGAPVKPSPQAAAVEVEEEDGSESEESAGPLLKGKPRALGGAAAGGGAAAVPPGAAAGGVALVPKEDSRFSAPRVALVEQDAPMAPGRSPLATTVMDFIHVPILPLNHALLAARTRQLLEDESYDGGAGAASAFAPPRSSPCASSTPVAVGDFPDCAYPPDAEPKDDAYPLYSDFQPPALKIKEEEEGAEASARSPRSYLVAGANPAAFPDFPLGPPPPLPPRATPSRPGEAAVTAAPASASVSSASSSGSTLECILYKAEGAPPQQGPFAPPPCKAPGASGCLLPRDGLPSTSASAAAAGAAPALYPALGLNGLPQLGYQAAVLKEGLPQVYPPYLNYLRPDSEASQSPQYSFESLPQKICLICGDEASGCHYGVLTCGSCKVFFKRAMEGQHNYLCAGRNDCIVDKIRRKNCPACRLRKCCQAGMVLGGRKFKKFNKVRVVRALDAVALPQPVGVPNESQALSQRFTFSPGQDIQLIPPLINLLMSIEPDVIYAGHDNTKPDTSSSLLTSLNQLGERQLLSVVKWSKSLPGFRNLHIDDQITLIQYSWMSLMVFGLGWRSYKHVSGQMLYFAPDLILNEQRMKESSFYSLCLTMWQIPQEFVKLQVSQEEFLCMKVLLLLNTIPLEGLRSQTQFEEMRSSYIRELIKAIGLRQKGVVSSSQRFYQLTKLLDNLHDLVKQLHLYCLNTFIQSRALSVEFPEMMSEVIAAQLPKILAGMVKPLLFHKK
Experimental: The biological activity of the compounds of this invention was examined by means of whole cell receptor binding studies.
Receptor Binding. The affinity of the compounds for hormone receptors was determined by standard procedures similar to those that have been described, inter alia, by Wagner et al., Proc. Natl. Acad. Sci., 93, 8739-8744 (1996) for COS-1 cells. The human breast carcinoma (T-47D) cell line was used to assess RBA for progestin receptor. The cell line used was obtained from ATCC (American Type Culture Collection) and stored frozen at -135° C. until a week before the assays were conducted. The cells were thawed and cultured to achieve the desired cell number (5 to 7 days on average). They were maintained at 37° C. with growth media until they were 90-100% confluent, at which time they were recovered from the growth flasks and dispersed into individual wells of a 12-well tissue culture plate at a count of 4×10^5 cells in one mL medium per well. After 24 h the cells adhered to the bottom of the 12-well plates. At this point, the receptor binding assay procedure was initiated by the addition of test or standard compounds with 3H-R5020 (promegestone). After incubation overnight, medium was removed, the cells were washed and solubilized and radioactivity was measured by liquid scintillation spectrometry. Nonspecific binding was determined by incubation with excess of unlabeled R5020 and subtracted from total binding to calculate specific binding. The progesterone binding assay was conducted with several concentrations of the reference standard (promegestone, R-5020) and an internal standard (progesterone). These hormones were allowed to compete with tritiated competitor (3H-promegestone, 3H-R5020) to estimate relative binding. Test steroids were tested at three or more concentrations between 0.01 to 1000 nM. If 50% displacement of the 3H-R5020 from the receptor was not achieved by the unknown, higher or lower concentrations were tested, as needed, to obtain that goal. All compounds were tested in duplicate for at least two assays. The percentage of specifically bound 3H-R5020 for each concentration tested was calculated and binding curves were generated by plotting the percentage of specifically bound 3H-R-5020 versus the concentration of the competitor. The relative binding activity (RBA) of the test compounds, relative to the reference standard (R5020) as well as the internal standard, was determined from the ratio of concentrations causing 50% displacement for each unknown and standard and expressed as a percentage value. These concentrations were obtained by graphical interpolation of the plots.

[2] = tested on: human progestin receptor; conditions: % the affinity of progesterone; Smith et al., J. Biol. Chem. 1974; cited from earlier work

Row | Structure (SMILES) | pIC50 [1] | Relative Binding % Prog. [1] [%] | Relative Binding % R5020 [1] [%] | affinity relative to progesterone, binding to human progestin receptor [2] [%]
1 | CN(C)c1ccc([C@H]2C[C@@]3(C)[C@@H](CC[C@@]34CCC[S+]4[O-])[C@@H]3CCC4=CC(=O)CCC4=C32)cc1 (single isomer, unassigned) [Compound 21a, 11β-[4-(N,N-Dimethylamino)phenyl]-1'-oxo-spiro[estr-4,9-diene-17β,2'-thiolane]-3-one] | 8.51 | 825 | 128 | 
2 | CN(C)c1ccc([C@H]2C[C@@]3(C)[C@@H](CC[C@@]34CCC[S+]4[O-])[C@@H]3CCC4=CC(=O)CCC4=C32)cc1 (single isomer, unassigned) [Compound 21b, 11β-[4-(N,N-Dimethylamino)phenyl]-1'-oxo-spiro[estr-4,9-diene-17β,2'-thiolane]-3-one] | 8.18 | 260 | 43 | 
3 | CC(=O)c1ccc([C@H]2C[C@@]3(C)[C@@H](CC[C@@]34CCC[S+]4[O-])[C@@H]3CCC4=CC(=O)CCC4=C32)cc1 (single isomer, unassigned) [Compound 22a, 11β-(4-Acetylphenyl)-1'-oxo-spiro[estra-4,9-diene-17β,2'-thiolane]-3-one] | 6.74 | 19 | 2 | 
4 | CC(=O)c1ccc([C@H]2C[C@@]3(C)[C@@H](CC[C@@]34CCC[S+]4[O-])[C@@H]3CCC4=CC(=O)CCC4=C32)cc1 (single isomer, unassigned) [Compound 22b, 11β-(4-Acetylphenyl)-1'-oxo-spiro[estra-4,9-diene-17β,2'-thiolane]-3-one] | 6.87 | 25 | 2 | 
5 | CSC1CCC2C3CCC4=CC(=O)CCC4(C)C3CCC12C (stereo not shown) [17-thiomethylandrost-4-en-3-one] |  |  |  | 25
6 | CN(C)c1ccc([C@H]2C[C@@]3(C)[C@@H](CC[C@@]34CCCS4)[C@@H]3CCC4=CC(=O)CCC4=C32)cc1 [Compound 12, 11β-[4-(N,N-Dimethylamino)phenyl]-spiro[estra-4,9-diene-17β,2'-thiolane]-3-one] | 8.55 | 983 | 105 | 
7 | CSc1ccc([C@H]2C[C@@]3(C)[C@@H](CC[C@@]34CCCS4)[C@@H]3CCC4=CC(=O)CCC4=C32)cc1 [Compound 14, 11β-[4-(Methylthio)phenyl]-spiro[estra-4,9-diene-17β,2'-thiolane]-3-one] | 8.39 | 651 | 49 | 
8 | CN(C)c1ccc([C@H]2C[C@@]3(C)[C@@H](CC[C@@]34CCCS4(=O)=O)[C@@H]3CCC4=CC(=O)CCC4=C32)cc1 [Compound 24, 1',1'-Dioxo-11β-[4-(N,N-dimethylamino)phenyl]-spiro[estra-4,9-diene-17β,2'-thiolane]-3-one] | 7.89 | 199 | 29 | 
